According to article PMC11788587, “Validating Low‐Dose Iohexol as a Marker for Glomerular Filtration Rate by In Vitro and In Vivo Studies” (Clinical and Translational Science, 2025):
Where two headings read alike, the source gives them in different places.

Assay: Clinical trial in healthy volunteers, population pharmacokinetic analysis;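 also: population pharmacokinetic parameters fitted to plasma and urine data, interindividual variability modelled exponentially, inter-occasion variability tied additively, sensitivity analysis compares alternative models omitting data from one subject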
Assay type: in vivo, human
[1] = Model 1: excluding samples within 45 minutes after the test dose for the subject with delayed absorption
[2] = Model 2: excluding all data from the subject with delayed absorption when receiving the test dose
[3] = final model, entire dataset, n=12
[4] = final model, nonparametric bootstrap
[5] = one subject, test dose period with suspected paravenous administration, model with absorption phase

Procedure: After establishing a reasonable structural model, the impact of dose‐related effects was assessed as a categorical covariate on PK parameters through forward and backward selection processes. Model improvement was evaluated using the change in the objective function value (ΔOFV), with significance levels of 0.05 (ΔOFV ≤ −3.84) and 0.01 (ΔOFV ≤ −6.63). The stability and performance of the final model were evaluated graphically and statistically, using goodness‐of‐fit plots, nonparametric bootstrap analysis [32], and the visual predictive check (VPC) technique [33], as described earlier [28].
Interindividual variability was estimated for CLR, V1, V2, and V3 using an exponential model. Inter‐occasion variability for CLR, V1, and Q2 was linked to inter‐individual variability through an additive model. The residual variability in plasma and urine data was best described by proportional error models.
To evaluate its impact on the final parameter estimates, we used two approaches: (i) conducting a sensitivity analysis by comparing parameter estimates across three models—the final model, a model excluding early post-dose plasma samples from the subject, and a model excluding all data from this period for the subject.

Effect of dose level (categorical covariate) on PK parameters (259 mg vs 3235 mg): did not differ significantly
Inter-individual variability CLR estimate (Model 1): 14.4 CV%
Inter-individual variability V1 estimate (Model 1): 16.8 CV%
Inter-individual variability V2 estimate (Model 1): 15.1 CV%
Inter-individual variability V3 estimate (Model 1): 15.0 CV%
Inter-occasion variability CLR estimate (Model 1): 3.69 CV%
Inter-occasion variability Q2 estimate (Model 1): 23.7 CV%
Inter-occasion variability V1 estimate (Model 1): 4.82 CV%
Q1 estimate [1]: 0.219 L/h
Q2 estimate [1]: 5.53 L/h
V1 estimate [1]: 8.91 L
V2 estimate [1]: 1.54 L
V3 estimate [1]: 4.30 L
Inter-individual variability CLR estimate (Model 2): 14.2 CV%
Inter-individual variability V1 estimate (Model 2): 17.2 CV%
Inter-individual variability V2 estimate (Model 2): 13.8 CV%
Inter-individual variability V3 estimate (Model 2): 13.5 CV%
Inter-occasion variability CLR estimate (Model 2): 2.33 CV%
Inter-occasion variability Q2 estimate (Model 2): 17.1 CV%
Inter-occasion variability V1 estimate (Model 2): 3.87 CV%
Q1 estimate [2]: 0.227 L/h
Q2 estimate [2]: 5.38 L/h
V1 estimate [2]: 8.90 L
V2 estimate [2]: 1.57 L
V3 estimate [2]: 4.30 L
Interindividual variability CLR, point estimate (final model, entire dataset): 14.0 CV%
Interindividual variability V1, point estimate (final model, entire dataset): 16.6 CV%
Interindividual variability V2, point estimate (final model, entire dataset): 14.0 CV%
Interindividual variability V3, point estimate (final model, entire dataset): 15.5 CV%
Interoccasion variability CLR, point estimate (final model, entire dataset): 2.51 CV%
Interoccasion variability Q2, point estimate (final model, entire dataset): 29.2 CV%
Interoccasion variability V1, point estimate (final model, entire dataset): 6.23 CV%
Q1 point estimate [3]: 0.221 L/h
Q2 point estimate [3]: 5.84 L/h
V1 point estimate [3]: 9.06 L
V2 point estimate [3]: 1.56 L
V3 point estimate [3]: 4.34 L
Interindividual variability CLR, bootstrap median (95% CI) [4]: 13.5 (5.05–20.1) CV%
Interindividual variability V1, bootstrap median (95% CI) [4]: 15.5 (6.88–23.1) CV%
Interindividual variability V2, bootstrap median (95% CI) [4]: 13.4 (7.81–20.7) CV%
Interindividual variability V3, bootstrap median (95% CI) [4]: 13.7 (5.57–19.2) CV%
Interoccasion variability CLR, bootstrap median (95% CI) [4]: 2.44 (0.900–3.87) CV%
Interoccasion variability Q2, bootstrap median (95% CI) [4]: 28.7 (6.99–65.8) CV%
Interoccasion variability V1, bootstrap median (95% CI) [4]: 6.06 (1.55–10.2) CV%
Q1 bootstrap median (95% CI) [4]: 0.219 (0.164–0.313) L/h
Q2 bootstrap median (95% CI) [4]: 5.76 (4.11–8.23) L/h
V1 bootstrap median (95% CI) [4]: 9.06 (8.18–10.1) L
V2 bootstrap median (95% CI) [4]: 1.57 (1.36–1.87) L
V3 bootstrap median (95% CI) [4]: 4.34 (3.81–4.99) L
CL renal (human, plasma and urine, intravenous, Model 1: excluding samples within 45 minutes after the test dose for the subject with delayed absorption, read-out: CLR estimate (converted)): 90.8 mL/min
CL renal (human, plasma and urine, intravenous, Model 2: excluding all data from the subject with delayed absorption when receiving the test dose, read-out: CLR estimate (converted)): 91.5 mL/min
CL renal (human, plasma and urine, intravenous, final model, entire dataset, n=12, read-out: CLR point estimate (converted)): 91.7 mL/min
CL renal (human, plasma and urine, intravenous, final model, nonparametric bootstrap, read-out: CLR bootstrap median (95% CI) (converted)): 91.7 mL/min
CL renal (human, plasma and urine, intravenous, final model, read-out: Individual empirical Bayesian estimates of CLR, median (range) (converted)): 87.5 mL/min
Vd (human, plasma and urine, intravenous, final model, read-out: Individual empirical Bayesian estimates of volume of distribution (sum of V1, V2, and V3), median (range)): 15.1 L
First-order absorption rate constant [5]: 0.876 h⁻¹
Relative bioavailability [5]: 93.6%
SMILES: CC(=O)N(CC(O)CO)c1c(I)c(C(=O)NCC(O)CO)c(I)c(C(=O)NCC(O)CO)c1I (stereo not drawn) [iohexol]
